{
  "source": "paper PMC10460880",
  "about": "“Cathepsin K‐Activated Probe for Fluoro‐Photoacoustic Imaging of Early Osteolytic Metastasis” (Advanced Science, 2023)",
  "key": {"[1]": {"test_system": "CTSK-overexpressing OCs on calf bone slice", "test": "In vitro bone resorption imaging assay", "assay_type": "cell-based, C57BL/6J mice", "conditions": "2-CP 50 mM, 37 °C, 30 min, then CTSK-APPA 5 μM, 2 h", "protocol": "PS. RAW 264.7 cells and BMMs were maintained in an atmosphere of 5% CO2 and 95% humidified air at 37 °C. The medium was changed every day.\nCell cytotoxicity assay. MDA-MB-231/Luc and RAW 264.7 cells were seeded in 96-well plates (5×10^3 cells per well) for 24 h and then incubated with CTSK-APPA or CTSK-APP (5, 10, 20, 50 μM) or saline for 24 h. The medium was removed and cells were incubated with CCK-8 (0.5 mg/mL) for another 1 h. The absorbance of the mixture at 450 nm was measured by using a microplate reader. Cell viability was expressed by the ratio of the absorbance of the cells incubated with the probes to that of the cells incubated with culture medium only.\nIn vitro osteoclast differentiation. Bone marrow-derived macrophages were isolated from the femurs and tibias of 4-week-old C57BL/6J mice and cultured in a complete medium containing M-CSF (30 ng/mL) for 4 days. BMMs were harvested to the 24-well plates (1×10^4 per well) and cultured in the complete medium containing M-CSF (30 ng/mL) and RANKL (100 ng/mL) for another 4 days. The osteoclasts were fixed and stained by using acid phosphatase and a leukocyte kit according to the manufacturer’s procedures.\nIn vitro bone resorption imaging assay. […]\nFluorescence images were captured by using the IVIS Spectrum imaging system with excitation […]"}, "[2]": {"test_system": "OCs", "test": "Cell selectivity experiment, osteoclasts", "assay_type": "cell-based", "conditions": "n = 3"}, "[3]": {"test_system": "MDA-MB-231/Luc-induced osteolytic metastasis", "test": "Real-time NIR fluorescence and PA imaging of osteolytic metastasis", "assay_type": "in vivo, BALB/c nude mice", "conditions": "2-CP 50 mM, 200 μL, 1 h before probe; n = 3", "protocol": "page 5: PS. RAW 264.7 cells and BMMs were maintained in an atmosphere of 5% CO2 and 95% humidified air at 37 °C. The medium was changed every day. Cell cytotoxicity assay. MDA-MB-231/Luc and RAW 264.7 cells were seeded in 96-well plates (5×10^3 cells per well) for 24 h and then incubated with CTSK-APPA or CTSK-APP (5, 10, 20, 50 μM) or saline for 24 h. The medium was removed and cells were incubated with CCK-8 (0.5 mg/mL) for another 1 h. The absorbance of the mixture at 450 nm was measured by using a microplate reader. Cell viability was expressed by the ratio of the absorbance of the cells incubated with the probes to that of the cells incubated with culture medium only. In vitro osteoclast differentiation. Bone marrow-derived macrophages were isolated from the femurs and tibias of 4-week-old C57BL/6J mice and cultured in a complete medium containing M-CSF (30 ng/mL) for 4 days. […] Fluorescence images were captured by using the IVIS Spectrum imaging system with excitation at 660 ± 10 nm and emission at 710 ± 10 nm. […] The bone marrow toxicity of CTSK-APPA and CTSK-APP was assessed by blood analyses in mice. […] The red blood count (RBC) and white blood count (WBC) were further measured. […] The supernatants containing excreted probes were quantified by using a UV-vis absorption spectrometer. […]"}},
  "data": [
    {"smiles": "N#Cc1ncccn1", "note": "[Probe 2-CP, 2-Cyanopyrimidine, reference compound]", "values": [
      {"measurement": "effect of inhibitor pre-treatment on CTSK-APPA fluorescence of bone-resorption slice", "setting": "[1]", "value": "remarkably suppressed NIR fluorescence"},
      {"measurement": "effect of inhibitor on CTSK-APPA fluorescence in OCs", "setting": "[2]", "value": "effectively reduced"},
      {"measurement": "effect of preinjected inhibitor on NIR fluorescence and PA signals of CTSK-APPA", "setting": "[3]", "value": "reduced to the CTSK‐APP levels"}
    ]}
  ]
}
